Consider five molecules from patent US20110060029A1, “METHOD OF TREATING CANCER BY MODULATING EPAC” (priority 2009, published 2011).

In one assay the test system is SK-Mel-2. Put plainly: Migration assay (Boyden chambers) in SK-Mel-2. Type of assay: cell-based, human. Conditions: for cell migration: 50 μM agonist. How it is done:
(§1) Cell Culture—SK-Mel-2 and SK-Mel-24 (ATCC) cell lines were cultured in Eagle's Minimum Essential Medium supplemented with 10% fetal bovine serum at 37° C./5% CO2. HEMA-LP human melanocytes (Cascade Biologics) were maintained in Medium 254 with Human Melanocyte Growth Supplement (Cascade Biologics).
(§2) Adenoviral Overexpression—Recombinant adenoviruses containing human LacZ, Epac1 or Epac2 were constructed (Adeno-X Expression System, Clontech). Human Epac1 and Epac2 cDNA were kindly provided by Dr. J. L Bos (University Medical Center, Utrecht, Netherlands). Adenovirus of PKA alpha subunit was purchased from Vector Biolabs. The corresponding encoding sequence was cloned in topShuttle2 (Clontech) to obtain a mammalian expression cassette, which was then excised and ligated into BD Adeno-X Viral DNA. The recombinant vector was introduced into human embryonic kidney cells (HEK293) to recover infectious adenovirus. Viruses were propagated in HEK293 cells, and purified by BD Adeno-X Virus Purification Kits. Viral titer was determined by Adeno-X Rapid Titer Kit (Clontech). As a control study, adenovirus vector harboring LacZ was used at the same MOI. Cells were infected with adenovirus for 24 hand subjected to each experiment. In some experiments (For HS production and NDST-1 expression, FIGS. 5B, 5C, 5D, 5E, 5F and 5G), cells were further incubated for 48 h in medium without adenovirus followed by each experiment.
(§3) Migration assay—Migration assay was performed using methods previously known in the art using the Boyden chambers (pore size 8 μm, BD Biosciences). The upper chamber's polycarbonate insert film parts were coated by 75 μl fibronectin (50 μg/ml in PBS, Biosciences). Cultured cells were detached and the number of the cells was adjusted to 1×10^3 cells/μl of media. One-hundred micro liter of the cell suspension was applied to the center of the upper chamber and then attached to the lower chamber. Thereafter, the cells were incubated in CO2 incubator at 37° C. for 3 h unless specified. After fixation with 10% formalin neutral solution, cells were stained with Diff-Quick kit (Dade Behring). After mechanical removing of the cells on the upper surface of the membrane with a cotton swab, cells that migrated onto the lower surface of the membrane were counted. Pictures were taken with a microscope followed by counting migrated cells with Image J software in randomly chosen 10 fields.
Transfection of siRNA—Epac1 siRNA (Ambion), syndecan-2 siRNA (Ambion) and NDST-1 siRNA (QIAGEN) were transfected into subconfluent SK-Mel-2 cells using Lipofectamine 2000 (Invitrogen). For Epac1, a pool of double-stranded siRNAs containing equal parts of the following antisense sequence was used: 5′-AUCACUGUAUACCGGUUCC-3′ (SEQ ID NO: 1). For syndecan-2, a pool of double-stranded siRNAs containing equal parts of the following antisense sequence was used: 5′-CUCUGGACUCUCUACAUCC-3′ (SEQ ID NO: 2). For NDST-1, a pool of double-stranded siRNAs containing equal parts of the following antisense sequence was used: 5′-UUUAUUAGCAGUUAGUUCG-3′ (SEQ ID NO: 3). The corresponding non-targeting siRNA Silencer negative Control #2 siRNA (AM4613, Ambion) was used as a negative control. Twenty-four hours later, the medium containing siRNA was changed to fresh medium and incubated for 72 h. When siRNA transfection was combined with adenoviral infection, siRNA transfection followed the adenoviral infection.

In a further assay the test system is SK-Mel-24. In words: Migration assay (Boyden chambers) in SK-Mel-24. The format is cell-based, human. The note with it: FIG. 1A; for cell migration: 50 μM agonist. How it is done: as §1, §2
as §3, with “Thereafter, the cells were incubated in CO2 incubator at 37° C. for 3 h unless specified. After fixation with 10% formalin neutral solution, cells were stained with Diff-Quick kit (Dade Behring).” left out, “Pictures were taken with a microscope followed by counting migrated cells with Image J software in randomly chosen 10 fields.” left out

For assay [1], the system named is HEMA-LP human melanocytes. Put plainly: Migration assay (Boyden chambers) in HEMA-LP melanocytes. The format is cell-based. The note with it: HEMA-LP melanocyte; 50 μM agonist; FIG. 1A. How it is done: as §1
as §2, with “As a control study, adenovirus vector harboring LacZ was used at the same MOI. Cells were infected with adenovirus for 24 hand subjected to each experiment. In some experiments (For HS production and NDST-1 expression, FIGS. 5B, 5C, 5D, 5E, 5F and 5G), cells were further incubated for 48 h in medium without adenovirus followed by each experiment.” left out
Migration assay—Migration assay was performed using methods previously known in the art using the Boyden chambers (pore size 8 μm, BD Biosciences). […] After mechanical removing of the cells on the upper surface of the membrane with a cotton swab, cells that migrated onto the lower surface of the membrane were counted. […]

Assay [2] deals with Cloudman S91 melanoma cell line. In words: Migration assay in Cloudman S91 melanoma cells. Type of assay: cell-based, mouse. Conditions: 50 μM 8-pMeOPT, FIG. 6B. The protocol: as §3
Lung colonization assay—To examine the metastatic potential of melanoma cells, lung colonization assay was performed using methods known in the art. […] Two weeks after the injection, the number of metastatic colonies on the surface of the lungs were counted under a dissection microscope. […]

The subject of assay [3] is syndecan-2 colocalization with lipid rafts. Put plainly: Immunocytochemical staining of syndecan-2 and lipid rafts in SK-Mel-2. The format is cell-based, human. The note with it: for colocalization of syndecan-2 with lipid rafts: SK-Mel-2, 50 μM 8-pMeOPT for 15 min; for Epac1-induced syndecan-2 colocalization with lipid rafts: SK-Mel-2 overexpressing Epac1, NCD 10 μM for 3 h, FIG. 3D. How it is done: (§4) Immunocytochemistry—Immunocytochemistry was performed using methods previously known in the art. SK-Mel-2 on glass coverslips were fixed, washed and permeabilized with 0.02% Triton-X followed by incubation with primary and secondary antibodies for 30 min at room temperature. Alexa Fluor 488- and 594-conjugated goat anti-rabbit or anti-mouse antibodies (Molecular Probes) were used. The pictures were taken with a digital camera operated on a Nikon Eclipse TE200 or a confocal microscope (Zeiss Axiovert 100M). For mounting media, Prolong-Gold antifade with DAPI (Molecular Probes) was used.

The subject of assay [4] is syndecan-2 in lipid rafts-rich fraction. In words: Immunoblot for syndecan-2 in lipid rafts-rich fraction (sucrose density gradient) of SK-Mel-2. The format is cell-based, human. The note with it: SK-Mel-2 overexpressing Epac1; 10 μM NCD for 3 h; FIG. 3E. How it is done: Western Blotting—Western blot analysis was performed using methods previously known in the art. Cells were lysed and sonicated in lysis buffer containing 25 mM Tris-HCl (pH7.5), 150 mM NaCl, 5 mM MgCl2, 1% NP-40, 1 mM DTT, 5% glycerol, phosphatase inhibitor (Sigma), protease inhibitor cocktail (Sigma) and 1 mM NaF. Equal amounts of protein (20 μg) were subjected to SDS-PAGE. After protein separation by electrophoresis, samples were transferred to Millipore Immobilon-P membrane and immunoblotting with antibodies was performed. Signal intensities of the bands were quantified with Image J software (NIH). Sucrose density gradient centrifugation—Lipid rafts-enriched membrane fractions were prepared using methods previously known in the art. Briefly, SK-Mel-2 cells were homogenated in 2 ml of 500 mM sodium carbonate (pH 11.0) with protease inhibitors (1 μg/ml leupeptin, 0.1 mM PMSF and 50 U/ml egg white trypsin inhibitor) and lysed by sonication. The lysate was then adjusted to 45% sucrose by mixing with 2 ml of 90% sucrose prepared in MBS buffer (25 mM 2-Morpholinoethanesulfonic acid (MES), pH 6.5, […]) and placed at the bottom of 5% and 35% discontinuous sucrose gradient (in MBS buffer containing 100 mM sodium carbonate) for an overnight ultra-centrifugation (260,000 g). Fractions were removed sequentially from the top and designated as fractions 1 through 13. […]

For another assay, the system named is tubulin. In words: Immunocytochemical staining with tubulin in SK-Mel-2. The format is cell-based, human. The note with it: SK-Mel-2 overexpressing Epac1; NCD 10 μM for 3 h; FIG. 3C. The protocol:
as §4

“Also recorded” adds a separate entry of the source.

With `CCCC(=O)Nc1ncnc2c1ncn2[C@@H]1O[C@@H]2COP(=O)(O)O[C@H]2[C@H]1O` [6-MB-cAMP, N6-Monobutyryladenosine-3′,5′-cyclic monophosphate], the cell migration result in the assay on SK-Mel-2 (SK-Mel-2, FIG. 1A) is on record as “did not increase cell migration; also recorded: neither 6-MB-cAMP nor PKA overexpression, increased melanoma cell migration”; with SK-Mel-24, “did not increase cell migration; also recorded: neither 6-MB-cAMP nor PKA overexpression, increased melanoma cell migration”; in assay [1], “did not increase cell migration”.
Regarding `COc1ccc(Sc2nc3c(N)ncnc3n2[C@@H]2O[C@@H]3COP(=O)(O)O[C@H]3[C@H]2OC)cc1` [8-pMeOPT, 8-pMeOPT-2-O-Me-cAMP], the migration entry in assay [2] is “increased migration”. Besides, the “cell migration, combination with overexpression of Epacs over Epac overexpression alone” value in the assay on SK-Mel-2 (SK-Mel-2, 50 μM 8-pMeOPT, FIG. 1A) is recorded as “further increased cell migration”; in the assay with SK-Mel-24 (50 μM 8-pMeOPT), “such increase was not observed”. Also, the cell migration entry is on record as “increased melanoma cell migration” in the assay with SK-Mel-2 (SK-Mel-2, FIG. 1A); “increased melanoma cell migration” with SK-Mel-24; “not in a melanocyte cell line” in assay [1]. The “colocalization of syndecan-2 with lipid rafts” value in assay [3] (FIG. 2A) was “increased colocalization of syndecan-2 with lipid rafts”; in assay [3] (FIG. 2A, listed as Epac agonist) it was “increased co-localization of syndecan-2 with lipid rafts”.
Regarding `COC(=O)Nc1nc2ccc(C(=O)c3cccs3)cc2[nH]1` [NCD, Nocodazole], the “syndecan-2 expression in lipid raft-rich fraction” value in assay [4] is reported as “decreased expression of sydecan-2 in the lipid rafts-rich fraction; also recorded: decreased syndecan-2 expression in lipid raft-rich fraction”. For the same molecule, in the assay on SK-Mel-2 (SK-Mel-2 overexpressing Epac1, NCD 10 μM, FIG. 3F), the Epac1-induced migration result was “inhibited Epac-induced migration; also recorded: inhibited Epac1-induced migration”. Moreover, the figures for the “Epac1-induced syndecan-2 colocalization with lipid rafts” value in assay [3] and in assay [3] (listed as Nocodazole) were “decreased Epac1-induced syndecan-2 colocalization with lipid rafts” and “decreased the colocalization of syndecan-2 with lipid rafts”, respectively. Further, in the assay with tubulin, the “Epac1-induced fine tubulin network formation” value is “network formation was inhibited”.
Consider `[Na+].[O-][Cl+2]([O-])[O-]` [sodium chlorate], for which the Epac-induced migration entry with SK-Mel-2 (sodium chlorate, data not shown) is “decreased Epac-induced migration”.
As to cyclodextrin [CXD], the Epac1 overexpression-induced migration entry with SK-Mel-2 (SK-Mel-2 overexpressing Epac1, 10 μg/ml CXD, FIG. 2C) is on record as “inhibited; also recorded: decreased Epac1 overexpression-induced migration”. In the assay on SK-Mel-2 (SK-Mel-2 overexpressing LacZ, 10 μg/ml CXD, assay 8 h, FIG. 2C), the basal migration entry was “inhibited”. Moreover, the “Epac1-overexpression-induced colocalization of syndecan-2 with lipid rafts” value in assay [3] (SK-Mel-2 with Epac1 adenovirus, 10 μg/ml CXD, FIG. 2A) was “decreased Epac-induced syndecan-2 colocalization with lipid-rafts; also recorded: decreased Epac1-overexpression-induced colocalization of syndecan-2 with lipid rafts”.
